Measurements taken from ChEMBL document CHEMBL2029328, “Identification and structure-activity relationships of a novel series of estrogen receptor ligands based on 7-thiabicyclo[2.2.1]hept-2-ene-7-oxide” (J Med Chem, 2012).

How the values were obtained:
[1] = molecular target: T1, Estrogen receptor (Homo sapiens) (UniProt P03372); experiment: Displacement of [3H]estradiol from human ERalpha after 18 to 24 hrs
T1 sequence (whole entry): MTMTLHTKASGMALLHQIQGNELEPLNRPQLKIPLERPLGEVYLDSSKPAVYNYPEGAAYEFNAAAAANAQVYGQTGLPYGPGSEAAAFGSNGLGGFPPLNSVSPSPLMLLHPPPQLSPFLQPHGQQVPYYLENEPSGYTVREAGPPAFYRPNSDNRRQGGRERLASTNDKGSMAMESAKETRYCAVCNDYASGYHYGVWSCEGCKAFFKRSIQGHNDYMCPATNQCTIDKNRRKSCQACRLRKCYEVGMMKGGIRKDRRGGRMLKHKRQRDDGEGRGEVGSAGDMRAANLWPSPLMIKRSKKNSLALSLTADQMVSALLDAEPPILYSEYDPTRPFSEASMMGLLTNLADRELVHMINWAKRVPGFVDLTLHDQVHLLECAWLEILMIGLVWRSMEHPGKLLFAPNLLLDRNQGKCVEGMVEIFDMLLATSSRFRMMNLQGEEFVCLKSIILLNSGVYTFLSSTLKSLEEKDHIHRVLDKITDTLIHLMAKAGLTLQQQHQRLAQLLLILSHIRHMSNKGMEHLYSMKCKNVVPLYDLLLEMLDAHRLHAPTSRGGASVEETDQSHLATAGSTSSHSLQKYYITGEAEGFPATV

Estrogen receptor beta [2] = molecular target: T2, Estrogen receptor beta (Homo sapiens, UniProt Q92731); experiment: Displacement of [3H]estradiol from human ERbeta after 18 to 24 hrs
T2 sequence (Q92731 whole entry): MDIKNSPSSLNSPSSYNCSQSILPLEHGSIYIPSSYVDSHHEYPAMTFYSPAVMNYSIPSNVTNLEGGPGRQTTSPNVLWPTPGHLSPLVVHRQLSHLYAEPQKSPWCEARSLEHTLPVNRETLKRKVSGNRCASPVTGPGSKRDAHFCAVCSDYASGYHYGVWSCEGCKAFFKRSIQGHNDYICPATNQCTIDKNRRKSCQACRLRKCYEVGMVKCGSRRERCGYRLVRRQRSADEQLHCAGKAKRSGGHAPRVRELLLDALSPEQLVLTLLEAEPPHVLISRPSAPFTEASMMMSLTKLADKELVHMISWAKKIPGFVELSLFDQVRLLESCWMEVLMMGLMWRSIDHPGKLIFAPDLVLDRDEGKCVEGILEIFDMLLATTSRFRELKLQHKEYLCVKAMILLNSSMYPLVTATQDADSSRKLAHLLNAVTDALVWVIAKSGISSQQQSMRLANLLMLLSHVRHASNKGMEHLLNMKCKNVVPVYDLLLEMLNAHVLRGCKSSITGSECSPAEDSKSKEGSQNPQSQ

[3] = molecular target: T1, Estrogen receptor (Homo sapiens); experiment: Agonist activity at human ERalpha expressed in HepG2 cells up to 10^-5 M after 24 hrs by luciferase reporter gene assay relative to E2; format: functional, cell-based
Estrogen receptor beta [4] = molecular target: T2, Estrogen receptor beta; experiment: Agonist activity at human ERbeta expressed in HepG2 cells up to 10^-5 M after 24 hrs by luciferase reporter gene assay relative to E2; format: functional, cell-based
Estrogen receptor = molecular target: T3, Estrogen receptor (Homo sapiens, UniProt P03372)
T3 sequence (P03372 whole entry): T1 sequence (whole entry)
Description: Agonist activity at human ERalpha expressed in HepG2 cells after 24 hrs by luciferase reporter gene assay

Estrogen receptor beta [5] = molecular target: T2, Estrogen receptor beta
Description: Agonist activity at human ERbeta expressed in HepG2 cells after 24 hrs by luciferase reporter gene assay

Structure (SMILES)	RBA [1] [%]	RBA (Estrogen receptor beta [2]) [%]	Activity [3] [%]	Activity (Estrogen receptor beta [4]) [%]	EC50 (Estrogen receptor) [nM]	EC50 (Estrogen receptor beta [5]) [nM]
CCOC(=O)[C@@H]1[C@H](C(=O)OCC)[C@@H]2C(c3ccc(O)c(C)c3)=C(c3ccc(O)c(C)c3)[C@H]1[S+]2[O-] (some centres undefined)	0.026	0.019	22	3.6	–	–
CCOC(=O)[C@@H]1[C@H](C(=O)OCC)[C@@H]2C(c3ccc(O)cc3)=C(c3ccc(O)cc3)[C@H]1[S+]2[O-] (some centres undefined)	0.022	0.048	55	27	–	–
O=C1[C@@H]2[C@H](C(=O)N1c1ccccc1)[C@@H]1C(c3ccc(O)cc3)=C(c3ccc(O)cc3)[C@H]2[S+]1[O-] (mixture of isomers)	0.017	0.013	31	24	7100	–
Cc1cc(O)ccc1C1=C(c2ccc(O)cc2C)[C@H]2[C@H]3C(=O)N(c4ccccc4)C(=O)[C@H]3[C@@H]1[S+]2[O-] (mixture of isomers)	0.016	0.014	65	82	150	800
Cc1cc(C2=C(c3ccc(O)c(C)c3)[C@H]3[C@H]4C(=O)N(c5ccccc5)C(=O)[C@H]4[C@@H]2[S+]3[O-])ccc1O (mixture of isomers)	0.009	0.007	29	3.4	–	–
Cc1cc(C2=C(c3ccc(O)c(C)c3)[C@H]3[C@@H](S(=O)(=O)Oc4cccc5ccccc45)C[C@@H]2[S+]3[O-])ccc1O (relative stereo)	0.236	0.019	42	10	770	–
O=S(=O)(Oc1ccccc1)[C@H]1C[C@H]2C(c3ccc(O)cc3)=C(c3ccc(O)cc3)[C@@H]1[S+]2[O-] (relative stereo)	0.956	0.11	85	3.4	670	–
O=S(=O)(Oc1ccc(O)cc1)[C@H]1C[C@H]2C(c3ccc(O)cc3)=C(c3ccc(O)cc3)[C@@H]1[S+]2[O-] (relative stereo)	0.077	0.071	48	10	1100	–
Cc1cc(O)ccc1C1=C(c2ccc(O)cc2C)[C@H]2[C@@H](S(=O)(=O)Oc3ccccc3)C[C@@H]1[S+]2[O-] (relative stereo)	8.11	0.348	62	66	0.14	–
COc1ccc(OS(=O)(=O)[C@H]2C[C@H]3C(c4ccc(O)cc4C)=C(c4ccc(O)cc4C)[C@@H]2[S+]3[O-])cc1 (relative stereo)	0.741	0.091	76	32	210	–
Cc1cc(O)ccc1C1=C(c2ccc(O)cc2C)[C@H]2[C@@H](S(=O)(=O)Oc3ccccc3F)C[C@@H]1[S+]2[O-] (relative stereo)	3.53	0.138	56	54	2.2	–
Cc1cc(O)ccc1C1=C(c2ccc(O)cc2C)[C@H]2[C@@H](S(=O)(=O)Oc3ccccc3Cl)C[C@@H]1[S+]2[O-] (relative stereo)	2.49	0.227	73	46	2.8	–
Cc1cc(O)ccc1C1=C(c2ccc(O)cc2C)[C@H]2[C@@H](S(=O)(=O)Oc3ccccc3Br)C[C@@H]1[S+]2[O-] (relative stereo)	2.21	0.07	67	21	14	–
Cc1cc(O)ccc1C1=C(c2ccc(O)cc2C)[C@H]2[C@@H](S(=O)(=O)Oc3ccc(F)cc3)C[C@@H]1[S+]2[O-] (relative stereo)	2.18	0.08	74	45	200	–
Cc1cc(O)ccc1C1=C(c2ccc(O)cc2C)[C@H]2[C@@H](S(=O)(=O)Oc3ccc(Cl)cc3)C[C@@H]1[S+]2[O-] (relative stereo)	2.13	0.083	67	50	110	–
Cc1cc(O)ccc1C1=C(c2ccc(O)cc2C)[C@H]2[C@@H](S(=O)(=O)Oc3ccc(Br)cc3)C[C@@H]1[S+]2[O-] (relative stereo)	3.37	0.297	71	100	110	–
Cc1cc(O)ccc1C1=C(c2ccc(O)cc2C)[C@H]2[C@@H](S(=O)(=O)Oc3cccc4ccccc34)C[C@@H]1[S+]2[O-] (relative stereo)	0.998	0.18	59	83	27	–
Cc1cc(O)ccc1C1=C(c2ccc(O)cc2C)[C@H]2[C@@H](S(=O)(=O)Oc3ccc(O)cc3)C[C@@H]1[S+]2[O-] (relative stereo)	2.21	0.812	58	82	9.2	–
Cc1cc(C2=C(c3ccc(O)c(C)c3)[C@H]3[C@@H](S(=O)(=O)Oc4ccccc4)C[C@@H]2[S+]3[O-])ccc1O (relative stereo)	3.49	0.014	65	3.8	12	–
COc1ccc(OS(=O)(=O)[C@H]2C[C@H]3C(c4ccc(O)c(C)c4)=C(c4ccc(O)c(C)c4)[C@@H]2[S+]3[O-])cc1 (relative stereo)	0.31	0.021	57	9.8	11000	–
Cc1cc(C2=C(c3ccc(O)c(C)c3)[C@H]3[C@@H](S(=O)(=O)Oc4ccccc4F)C[C@@H]2[S+]3[O-])ccc1O (relative stereo)	–	0.01	55	0	1300	–
Cc1cc(C2=C(c3ccc(O)c(C)c3)[C@H]3[C@@H](S(=O)(=O)Oc4ccccc4Cl)C[C@@H]2[S+]3[O-])ccc1O (relative stereo)	1.18	0.022	72	0	2000	–
Cc1cc(C2=C(c3ccc(O)c(C)c3)[C@H]3[C@@H](S(=O)(=O)Oc4ccccc4Br)C[C@@H]2[S+]3[O-])ccc1O (relative stereo)	0.516	0.014	51	0	1200	–
Cc1ccc(C2=C(c3ccc(C)cc3)[C@H]3[C@@H](S(=O)(=O)Oc4ccc(O)cc4)C[C@@H]2[S+]3[O-])cc1 (relative stereo)	0.005	0.011	24	10	5500	–
COc1ccc(OS(=O)(=O)[C@H]2C[C@H]3C(c4ccc(O)cc4)=C(c4ccc(O)cc4)[C@@H]2[S+]3[O-])cc1 (relative stereo)	0.074	0.08	48	19	–	–
Cc1cc(C2=C(c3ccc(O)c(C)c3)[C@H]3[C@@H](S(=O)(=O)Oc4ccc(O)cc4)C[C@@H]2[S+]3[O-])ccc1O (relative stereo)	0.109	0.009	–	–	–	–
Cc1cc(O)ccc1C1=C(c2ccc(O)cc2C)[C@H]2[C@@H](S(=O)(=O)Oc3cccc(Cl)c3)C[C@@H]1[S+]2[O-] (relative stereo)	1.3	0.088	–	–	–	–
O=S(=O)(Oc1ccc(O)cc1)[C@H]1C[C@H]2C(c3ccccc3)=C(c3ccccc3)[C@@H]1[S+]2[O-] (relative stereo)	0.005	0.008	22	0	–	–
